US8609635B2, “Fused tricyclic silyl compounds and methods of use thereof for the treatment of viral diseases” (priority 2010, dated 2013)
Read-outs that look alike come from different tables or passages of the source.

Experiments:
HCV replicon gt1a_H77 = assay: Cell-based HCV replicon assay (TaqMan), genotype 1a (H77); details: replicon 1a (H77), replicon RNA by TaqMan, day 3
Procedure: (§1) Measurement of inhibition by compounds of the present invention was performed using the HCV replicon system. Several different replicons encoding different HCV genotypes or mutations were used. In addition, potency measurements were made using different formats of the replicon assay, including different ways of measurements and different plating formats. See Jan M. Vrolijk et al., A replicons-based bioassay for the measurement of interferons in patients with chronic hepatitis C, 110 J. VIROLOGICAL METHODS 201 (2003); Steven S. Carroll et al., Inhibition of Hepatitis C Virus RNA Replication by 2′-Modified Nucleoside Analogs, 278(14) J. BIOLOGICAL […] 11979 (2003). However, the underlying principles are common to all of these determinations, and are outlined below.
(§2) Compounds of the present invention were assayed for cell-based anti-HCV activity using the following protocol. Replicon cells were seeded at 5000 cells/well in 96-well collagen I-coated Nunc plates in the presence of the test compound. Various concentrations of test compound, typically in 10 serial 2-fold dilutions, were added to the assay mixture, with the starting concentration ranging from 250 μM to 1 μM. The final concentration of DMSO was 0.5%, fetal bovine serum was 5%, in the assay media. Cells were harvested on day 3 by the addition of 1× cell lysis buffer (Ambion cat #8721). The replicon RNA level was measured using real time PCR (TaqMan® assay). The amplicon was located in 5B. The PCR primers were: 5B.2F, […] (SEQ. ID NO. 1); 5B.2R, […] (SEQ. ID NO. 2); the probe sequence was FAM-labeled […] (SEQ. ID NO. 3). GAPDH RNA was used as endogenous control and was amplified in the same reaction as NS5B (multiplex PCR) using primers and VIC-labeled probe recommended by the manufacturer (PE Applied Biosystem). The real-time RT-PCR reactions were run on ABI PRISM 7900HT Sequence Detection System using the following program: 48° C. for 30 minutes, 95° C. for 10 minutes, 40 cycles of 95° C. for 15 sec, 60° C. for 1 minute. The ΔCT values (CT5B-CTGAPDH) were plotted against the concentration of test compound and fitted to the sigmoid dose-response model using XLfit4 (MDL). […] Alternatively, to quantitate the absolute amount of replicon RNA, a standard curve was established by including serially diluted T7 transcripts of replicon RNA in the Taqman assay. All TaqMan® reagents were from PE Applied Biosystems. Such an assay procedure was described in detail in e.g. Malcolm et al., Antimicrobial Agents and Chemotherapy 50: 1013-1020 (2006).
(§3) Wherein gt1a_H77 was prepared as described in Yi et al., J Virol. 2004, 78(15):7904-15; gt1b_con1 was prepared as described in Lohmann et al., Science 1999, 285(5424):110-3; and gt2a_JFH was prepared as described in Kato et al., Gastroenterology. 2003, 125(6):1808-17. Chimeric replicons contain NS5A from patient isolates of genotypes 1a, 1b, 2b, 3a and 4a as indicated.

[1] = tested on: HCV chimeric replicon with NS5A of genotype 2b (AB03090); assay: Cell-based HCV replicon assay (TaqMan), chimeric replicon genotype 2b (AB03090); details: replicon RNA by TaqMan, day 3
Procedure: as §1, §2, §3

HCV replicon gt2a_JFH = assay: Cell-based HCV replicon assay (TaqMan), genotype 2a (JFH); details: replicon 2a (JFH), replicon RNA by TaqMan, day 3
Procedure: as §1, §2, §3

[2] = tested on: HCV replicon 1a (L31V) mutant; assay: Cell-based HCV replicon assay (TaqMan), genotype 1a mutant L31V; details: read-out: HCV replicon EC50 1a (L31V)
Procedure: as §1, §2, §3

[3] = tested on: HCV replicon 1a (Y93H) mutant; assay: Cell-based HCV replicon assay (TaqMan), genotype 1a mutant Y93H; details: read-out: HCV replicon EC50 1a (Y93H)
Procedure: as §1, §2, §3

HCV replicon gt1b_con1 = assay: Cell-based HCV replicon assay (TaqMan), genotype 1b (Con1); details: replicon 1b (Con1), replicon RNA by TaqMan, day 3
Procedure: as §1, §2, §3

[4] = tested on: HCV chimeric replicon with NS5A of genotype 3a (NC00982); assay: Cell-based HCV replicon assay (TaqMan), chimeric replicon genotype 3a (NC00982); details: replicon RNA by TaqMan, day 3
Procedure: as §1, §2, §3

[5] = tested on: HCV chimeric replicon with NS5A of genotype 4a (DQ41878); assay: Cell-based HCV replicon assay (TaqMan), chimeric replicon genotype 4a (DQ41878); details: read-out: HCV replicon EC50 4a (DQ41878)
Procedure: as §1, §2, §3

[6] = Hepatitis C virus, 72 h, read-out: HCV replicon EC50 2b (AB03090), chimeric replicon 2b (AB03090)
[7] = Hepatitis C virus, 72 h, read-out: HCV replicon EC50 3a (NC00982), chimeric replicon 3a (NC00982)
[8] = read-out: HCV replicon EC50 2b (AB03090), chimeric replicon 2b (AB03090)
[9] = replicon 1a mutant Y93H, replicon RNA by TaqMan, day 3
[10] = read-out: HCV replicon EC50 3a (NC00982), chimeric replicon 3a (NC00982)
[11] = chimeric replicon 4a (DQ41878), replicon RNA by TaqMan, day 3

SMILES | EC50 (HCV replicon gt1a_H77; Hepatitis C virus, 72 h) | EC50 [1, 6] | EC50 (HCV replicon gt2a_JFH; Hepatitis C virus, 72 h) | EC50 ([2]; Hepatitis C virus, 72 h) | EC50 ([3]; Hepatitis C virus, 72 h) | EC50 (HCV replicon gt1b_con1; Hepatitis C virus, 72 h) | EC50 [4, 7] | EC50 ([5]; Hepatitis C virus, 72 h) | EC50 (HCV replicon gt1a_H77) | EC50 [1, 8] | EC50 (HCV replicon gt2a_JFH) | EC50 [3, 9] | EC50 (HCV replicon gt1b_con1) | EC50 [4, 10] | EC50 [5, 11] | EC50 ([2]; replicon 1a mutant L31V, replicon RNA by TaqMan, day 3)
COC(=O)N[C@H](C(=O)N1C[Si](C)(C)C[C@H]1c1ncc(-c2ccc(-c3ccc4c(ccc5nc([C@@H]6CC(F)(F)CN6C(=O)[C@@H](NC(=O)OC)C(C)C)[nH]c54)c3)cc2)[nH]1)C(C)C [Compound 54] | 0.009 nM | 128 nM | 0.03 nM | 10 nM | 65 nM | 0.002 nM | 0.18 nM | 0.02 nM |  |  |  |  |  |  |  | 
COC(=O)N[C@H](C(=O)N1C[Si](C)(C)C[C@H]1c1ncc(-c2ccc(-c3ccc4c(ccc5nc([C@@H]6CC(F)(F)CN6C(=O)[C@@H](NC(=O)OC)C(C)C)[nH]c54)c3)nc2)[nH]1)C(C)C [Compound 66] | 0.002 nM | > 100 nM | 0.08 nM | 32 nM | 260 nM | 0.005 nM | 0.15 nM |  |  |  |  |  |  |  |  | 
COC(=O)N[C@H](C(=O)N1C[Si](C)(C)C[C@H]1c1nc2ccc3cc(-c4ccc(-c5cnc([C@@H]6CCCN6C(=O)[C@@H](NC(=O)OC)C67CC(C(F)(F)F)(C6)C7)[nH]5)cc4)ccc3c2[nH]1)C(C)C [Compound 81] | 0.94 nM |  | 0.712 nM | > 100 nM | > 1000 nM | 0.012 nM | 9.69 nM | > 10 nM |  |  |  |  |  |  |  | 
COC(=O)N[C@H](C(=O)N1CCC(F)(F)C[C@H]1c1ncc(-c2ccc(-c3ccc4c(ccc5nc([C@@H]6C[Si](C)(C)CN6C(=O)[C@@H](NC(=O)OC)C(C)C)[nH]c54)c3)cc2)[nH]1)C(C)C [Compound 85] | 0.102 nM |  | 0.065 nM | 89 nM | 728 nM | 0.009 nM | 0.69 nM | 1.16 nM |  |  |  |  |  |  |  | 
CC(C)[C@H](NC(=O)OC1(C)CC1)C(=O)N1CCC(F)(F)C[C@H]1c1ncc(-c2ccc(-c3ccc4c(ccc5nc([C@@H]6C[Si](C)(C)CN6C(=O)[C@@H](NC(=O)OC6(C)CC6)C(C)C)[nH]c54)c3)cc2)[nH]1 [Compound 86] | > 1 nM |  | > 10 nM | > 1000 nM | > 1000 nM | 141 nM | > 100 nM | > 100 nM |  |  |  |  |  |  |  | 
COCCOC(=O)N[C@H](C(=O)N1CCC(F)(F)C[C@H]1c1ncc(-c2ccc(-c3ccc4c(ccc5nc([C@@H]6C[Si](C)(C)CN6C(=O)[C@@H](NC(=O)OCCOC)C(C)C)[nH]c54)c3)cc2)[nH]1)C(C)C [Compound 87] | > 1 nM |  | > 10 nM | > 1000 nM | > 1000 nM | 2.5 nM | > 100 nM | > 100 nM |  |  |  |  |  |  |  | 
CC(C)OC(=O)N[C@H](C(=O)N1CCC(F)(F)C[C@H]1c1ncc(-c2ccc(-c3ccc4c(ccc5nc([C@@H]6C[Si](C)(C)CN6C(=O)[C@@H](NC(=O)OC(C)C)C(C)C)[nH]c54)c3)cc2)[nH]1)C(C)C [Compound 88] | > 1 nM |  | > 10 nM | > 1000 nM | > 1000 nM | 4 nM | > 100 nM | > 100 nM |  |  |  |  |  |  |  | 
COC(=O)N[C@H](C(=O)N1CC(F)(F)C[C@H]1c1ncc(-c2ccc(-c3ccc4c(ccc5nc([C@@H]6C[Si](C)(C)CN6C(=O)[C@@H](NC(=O)OC)C(C)C)[nH]c54)c3)cc2)[nH]1)C(C)C [Compound 92] |  |  |  |  |  |  |  |  | 0.015 nM | 48 nM | 0.02 nM | 46 nM | 0.003 nM | 0.35 nM | 0.02 nM | 
COC(=O)N[C@H](C(=O)N1C[Si](C)(C)C[C@H]1c1ncc(-c2ccc(-c3ccc4c(ccc5nc([C@@H]6CC(F)(F)CN6C(=O)[C@@H](NC(=O)OC)C(C)C)[nH]c54)c3)cc2)[nH]1)C(C)C [Compound 94] |  |  |  |  |  |  |  |  | 0.008 nM | 129 nM | 0.03 nM | 65 nM | 0.002 nM | 0.2 nM | 0.02 nM | 10 nM
COC(=O)N[C@H](C(=O)N1CC[C@H](C)[C@H]1c1nc2ccc3cc(-c4ccc(-c5cnc([C@@H]6C[Si](C)(C)CN6C(=O)[C@@H](NC(=O)OC)C(C)C)[nH]5)cc4)ccc3c2[nH]1)C(C)C [Compound 95] | > 0.1 nM |  | 0.032 nM | 9 nM | 210 nM | 0.015 nM | 0.066 nM | 1.22 nM |  |  |  |  |  |  |  | 
COC(=O)N[C@H](C(=O)N1C[Si](C)(C)C[C@H]1c1nc2ccc3cc(-c4ccc(-c5cnc([C@@H]6[C@@H]7C[C@@H]([C@@H](F)[C@H]7F)N6C(=O)[C@@H](NC(=O)OC)C(C)C)[nH]5)cc4)ccc3c2[nH]1)C(C)C [Compound 100] | 0.043 nM |  | 0.023 nM | 117 nM | 204 nM | 0.002 nM | 7.4 nM | < 0.2 nM |  |  |  |  |  |  |  | 
COC(=O)N[C@H](C(=O)N1C[Si](C)(C)C[C@H]1c1nc2ccc3cc(-c4ccc(-c5cnc([C@@H]6[C@@H]7C[C@@H]([C@@H](F)[C@H]7F)N6C(=O)[C@@H](NC(=O)OC6(C)CC6)C(C)C)[nH]5)cc4)ccc3c2[nH]1)C(C)C [Compound 101] | > 1 nM |  | > 10 nM | > 1000 nM | > 1000 nM | 0.023 nM | 54.6 nM | > 100 nM |  |  |  |  |  |  |  | 
COC(=O)N[C@H](C(=O)N1C[Si](C)(C)C[C@H]1c1ncc(-c2ccc(-c3ccc4c(ccc5nc([C@H]6[C@@H]7C[C@@H]([C@@H](F)[C@H]7F)N6C(=O)[C@@H](NC(=O)OC)C(C)C)[nH]c54)c3)cc2)[nH]1)C(C)C [Compound 102] | 0.084 nM |  | 0.097 nM | 113 nM | 438 nM | < 2 nM | 7.5 nM | 0.3 nM |  |  |  |  |  |  |  | 
COC(=O)N[C@H](C(=O)N1CC(F)(F)C[C@H]1c1nc2ccc3cc(-c4ccc(-c5cnc([C@@H]6C[Si](C)(C)CN6C(=O)[C@@H](NC(=O)OC)C6CC6)[nH]5)cc4)ccc3c2[nH]1)C(C)C [Compound 105] | 0.021 nM |  | 0.141 nM | 43 nM | 151 nM | 0.003 nM | 0.17 nM | 0.18 nM |  |  |  |  |  |  |  | 
COC(=O)N[C@@H](C)C(=O)N1C[Si](C)(C)C[C@H]1c1ncc(-c2ccc(-c3ccc4c(ccc5nc([C@@H]6CC(F)(F)CN6C(=O)[C@@H](NC(=O)OC)C(C)C)[nH]c54)c3)cc2)[nH]1 [Compound 106] | 0.016 nM |  | 0.046 nM | 37.1 nM | 52.6 nM | 0.006 nM | 0.435 nM | 0.429 nM |  |  |  |  |  |  |  | 
